Test results from ChEMBL document CHEMBL3885881, “DrugMatrix”.

Species: Rattus norvegicus
Test: DrugMatrix - Regimen: Daily Repeat
Assay type: toxicity, organism-based, Sprague-Dawley
Set-up: regimen Daily Repeat, gender Male, age 6-8 weeks
Conditions: in vivo, po, route oral GAVAGE, vehicle .5 % CMC; for ABSOLUTE BASOPHIL / ABSOLUTE EOSINOPHIL / ABSOLUTE LYMPHOCYTE / ABSOLUTE MONOCYTE / ABSOLUTE SEGMENTED NEUTROPHIL / BASOPHIL / EOSINOPHIL / ERYTHROCYTE COUNT / HEMATOCRIT / HEMOGLOBIN / LEUKOCYTE COUNT / LYMPHOCYTE / MEAN CORPUSCULAR HEMOGLOBIN / MEAN CORPUSCULAR HEMOGLOBIN CONCENTRATION / MEAN CORPUSCULAR VOLUME / MONOCYTE / NEUTROPHIL / NUCLEATED RED BLOOD CELLS / PLATELET COUNT: tissue Blood; for ALANINE AMINOTRANSFERASE / ALBUMIN / ALKALINE PHOSPHATASE / ASPARTATE AMINOTRANSFERASE / BLOOD UREA NITROGEN / CARBON DIOXIDE / CHLORIDE / CHOLESTEROL / CREATINE PHOSPHOKINASE / CREATININE / GLUCOSE / LACTATE DEHYDROGENASE / LIPASE / PHOSPHORUS / POTASSIUM / SODIUM / TOTAL BILIRUBIN / TOTAL PROTEIN / URIC ACID: tissue Plasma
[1] = 100 mg/kg, 120 h, dose level Low, time 5 day
[2] = 2000 mg/kg, 72 h, dose level High, time 3 day
[3] = 2000 mg/kg, 120 h, dose level High, time 5 day

## CN/C(=N/CCSCc1nc[nH]c1C)NC#N [CIMETIDINE]
[1]
  ABSOLUTE BASOPHIL: 0 CELLS/uL
  ABSOLUTE EOSINOPHIL: 36.33 CELLS/uL
  ABSOLUTE LYMPHOCYTE: 10440.33 CELLS/uL
  ABSOLUTE MONOCYTE: 206 CELLS/uL
  ABSOLUTE SEGMENTED NEUTROPHIL: 1017.33 CELLS/uL
  BASOPHIL: 0%
  EOSINOPHIL: 0.33%
  ERYTHROCYTE COUNT: 5.58 x10E6/uL
  HEMATOCRIT: 34.03%
  HEMOGLOBIN: 13.43 G/DL
  LEUKOCYTE COUNT: 11.7 x10E3/uL
  LYMPHOCYTE: 89.33%
  MEAN CORPUSCULAR HEMOGLOBIN: 24.07 pg
  MEAN CORPUSCULAR HEMOGLOBIN CONCENTRATION: 39.47 G/DL
  MEAN CORPUSCULAR VOLUME: 61 fL
  MONOCYTE: 1.67%
  NEUTROPHIL: 8.67%
  NUCLEATED RED BLOOD CELLS: 0 /100WBC
  PLATELET COUNT: 685.33 x10E3/uL
  ALANINE AMINOTRANSFERASE: 61.33 u/L
  ALBUMIN: 4.23 G/DL
  ALKALINE PHOSPHATASE: 391.33 u/L
  ASPARTATE AMINOTRANSFERASE: 101.67 u/L
  BLOOD UREA NITROGEN: 15.33 mg/dL
  CARBON DIOXIDE: 28 mmol/L
  CHLORIDE: 101 MEQ/L
  CHOLESTEROL: 69 mg/dL
  CREATINE PHOSPHOKINASE: 711.67 u/L
  CREATININE: 0.18 mg/dL
  GLUCOSE: 163 mg/dL
  LACTATE DEHYDROGENASE: 293 u/L
  LIPASE: 10.33 u/L
  PHOSPHORUS: 11.6 mg/dL
  POTASSIUM: 6.16 MEQ/L
  SODIUM: 141.5 MEQ/L
  TOTAL BILIRUBIN: 0.2 mg/dL
  TOTAL PROTEIN: 5.97 G/DL
  URIC ACID: 1.67 mg/dL
[2]
  ABSOLUTE BASOPHIL: 0 CELLS/uL
  ABSOLUTE EOSINOPHIL: 50 CELLS/uL
  ABSOLUTE LYMPHOCYTE: 13681 CELLS/uL
  ABSOLUTE MONOCYTE: 50 CELLS/uL
  ABSOLUTE SEGMENTED NEUTROPHIL: 2252.33 CELLS/uL
  BASOPHIL: 0%
  EOSINOPHIL: 0.33%
  ERYTHROCYTE COUNT: 5.85 x10E6/uL
  HEMATOCRIT: 36.93%
  HEMOGLOBIN: 14.33 G/DL
  LEUKOCYTE COUNT: 16.03 x10E3/uL
  LYMPHOCYTE: 84.33%
  MEAN CORPUSCULAR HEMOGLOBIN: 24.5 pg
  MEAN CORPUSCULAR HEMOGLOBIN CONCENTRATION: 38.8 G/DL
  MEAN CORPUSCULAR VOLUME: 63.17 fL
  MONOCYTE: 0.33%
  NEUTROPHIL: 15%
  NUCLEATED RED BLOOD CELLS: 0.33 /100WBC
  PLATELET COUNT: 1342.33 x10E3/uL
  ALANINE AMINOTRANSFERASE: 56 u/L
  ALBUMIN: 4.13 G/DL
  ALKALINE PHOSPHATASE: 392.67 u/L
  ASPARTATE AMINOTRANSFERASE: 83.33 u/L
  BLOOD UREA NITROGEN: 18 mg/dL
  CARBON DIOXIDE: 32.33 mmol/L
  CHLORIDE: 98.33 MEQ/L
  CHOLESTEROL: 86.67 mg/dL
  CREATINE PHOSPHOKINASE: 295 u/L
  CREATININE: 0.24 mg/dL
  GLUCOSE: 145.67 mg/dL
  LACTATE DEHYDROGENASE: 334.33 u/L
  LIPASE: 17 u/L
  PHOSPHORUS: 11.87 mg/dL
  POTASSIUM: 7.13 MEQ/L
  SODIUM: 141.97 MEQ/L
  TOTAL BILIRUBIN: 0.17 mg/dL
  TOTAL PROTEIN: 5.67 G/DL
  URIC ACID: 1.5 mg/dL
[3]
  ABSOLUTE BASOPHIL: 0 CELLS/uL
  ABSOLUTE EOSINOPHIL: 104.67 CELLS/uL
  ABSOLUTE LYMPHOCYTE: 19446 CELLS/uL
  ABSOLUTE MONOCYTE: 531.33 CELLS/uL
  ABSOLUTE SEGMENTED NEUTROPHIL: 1118 CELLS/uL
  BASOPHIL: 0%
  EOSINOPHIL: 0.67%
  ERYTHROCYTE COUNT: 5.6 x10E6/uL
  HEMATOCRIT: 34.37%
  HEMOGLOBIN: 14 G/DL
  LEUKOCYTE COUNT: 21.2 x10E3/uL
  LYMPHOCYTE: 91.33%
  MEAN CORPUSCULAR HEMOGLOBIN: 25.03 pg
  MEAN CORPUSCULAR HEMOGLOBIN CONCENTRATION: 40.77 G/DL
  MEAN CORPUSCULAR VOLUME: 61.33 fL
  MONOCYTE: 2.33%
  NEUTROPHIL: 5.67%
  NUCLEATED RED BLOOD CELLS: 0 /100WBC
  PLATELET COUNT: 1356.67 x10E3/uL
  ALANINE AMINOTRANSFERASE: 58 u/L
  ALBUMIN: 4.07 G/DL
  ALKALINE PHOSPHATASE: 363 u/L
  ASPARTATE AMINOTRANSFERASE: 88.33 u/L
  BLOOD UREA NITROGEN: 19.33 mg/dL
  CARBON DIOXIDE: 25 mmol/L
  CHLORIDE: 100.33 MEQ/L
  CHOLESTEROL: 60 mg/dL
  CREATINE PHOSPHOKINASE: 520.33 u/L
  CREATININE: 0.3 mg/dL
  GLUCOSE: 225 mg/dL
  LACTATE DEHYDROGENASE: 221.33 u/L
  LIPASE: 8 u/L
  PHOSPHORUS: 13.4 mg/dL
  POTASSIUM: 5.31 MEQ/L
  SODIUM: 143.57 MEQ/L
  TOTAL BILIRUBIN: 0.2 mg/dL
  TOTAL PROTEIN: 5.73 G/DL
  URIC ACID: 1.9 mg/dL
